For one series, the system named is MCF-7 cells. Briefly: Induction of apoptosis by TNF-α in MCF-7 cells, Western blot of caspase cleavage products and cell death. The series is classed as cell-based, human. Particulars: 48 hours. The protocol: Induction of apoptosis. MCF-7 cells were plated and grown for 48 hours reaching a cell density of 70% prior to TNF-α addition. Media was replaced with fresh media supplemented with 100 ng/ml TNF-α. TNF-α treatment of stable cell lines was carried out by plating, cells directly into fresh DMEM plus 10% fetal bovine serum, with or without addition of tetracycline as indicated, containing 100 ng/ml TNF-α. Cells floating in the media were collected by centrifugation (1,200 rpm, 5 min) and extracted in combination with attached cells at the time points indicated, as described below. WeHI 231 cells were plated at a density of 5×10^4 cells/ml and treated with 1 μg/ml of α-IgM antibodies in complete media. Cells were collected by centrifugation and lysed as stated below.
Lysates were made as previously described (39; 41) in A-PTY buffer (50 mM HEPES, pH 7.5, 50 mM NaCl, 5 mM EDTA, 1% Triton X-100, 50 mM NaF, 10 mM Na4P2O7 and supplemented each extraction with 1 mM phenylmethylsulfonylfluoride, 0.01 mg/ml aprotinin and 0.01 mg/ml leupeptin). For adherent cultures, floating cells were pooled with the adherent cells prior to lysis. The cell pellet was then lysed in combination with lysates from the attached cells. […] Detection was via chemiluminescence as described (Law et al. (1996) Mol. Cell. Biol. 16: 3327-3337).
For orientation: Immunoblotting shows a protein as a band on a membrane.

The subject of the next series is caspase 3. Briefly: Caspase activity assay: Ac-DEVD-pNA cleavage by lysates of HEF1-expressing MCF-7 cells. Particulars: z-DEVD-fmk 0.5 μM; Ac-DEVD-pNA 250 μM; lysates of induced HEF1 cells; 24 hr; 405 nm. The series is classed as biochemical, human. The protocol:
HEF1 expression and caspase activity. Stable cell lines containing parental tetracycline-regulatable vector with or without the full length HEF1 cDNA were generated in MCF-7 cells (Example 2). These were plated at a density of approximately 1×10^6 cells per 100 mm plate into fresh DMEM plus 10% fetal bovine serum in the absence of tetracycline and other selective antibiotics (induced) or in the presence of 1 μg/ml tetracycline (uninduced). Floating and attached cells were combined and extracted in caspase assay buffer (50 mM HEPES, pH 7.4, 100 mM NaCl, 0.1% CHAPS, 10 mM DTT, 1 mM EDTA, and 10% glycerol). Protein content of extracts was determined using the Bio-Rad protein assay as per the manufacturer's instructions (Bio-Rad, Hercules, Calif.). Caspase assays were performed as previously described (DiPietrantonio et al. (1999) Biochem Biophys Res Commun 255:477-82). […] Triplicate samples were incubated at room temperature and the release of pNA product was monitored at 405 nm a microtiter plate reader (Multiskan Plus, Labsystems, Helsinki. Finland). Initial readings were taken at the start of the incubation (T0) and final readings were taken at the completion of the reaction at 24 hr (T1). The change in absorbance over time was determined by subtracting T0 from T1 for each sample.

Series [1] deals with the molecule itself. Briefly: yeast two-hybrid analysis. An excerpt:
EGY48 yeast (Gyuris et al., 1993, supra) were transformed by standard methods with plasmids expressing LexA-fusions, activation-domain fusions, or both, together with the LexA operator-LacZ reporter SH18-34 (Gyuris et al., 1993, supra). For all fusion proteins, synthesis of a fusion protein of the correct length in yeast was confirmed by Western blot assays of yeast extracts (Samson et al., Cell 57: 1045–1052, 1989) using polyclonal antiserum specific for LexA (Brent and Ptashne, Nature 312: 612–615, 1984) or for hemagglutinin (Babco, Inc), as appropriate. Activation of the LacZ reporter was determined as previously described (Brent and Ptashne, Cell 43: 729–736, 1985). Beta-galactosidase assays were performed on three independent colonies, on three separate occasions, and values for particular plasmid combinations varied less than 25%. Activation of the LEU2 reporter was determined by observing the colony forming ability of yeast plated on complete minimal medium lacking leucine. The LexA-PRD/HD expressing plasmid has been described (Golemis and Brent, Mol. Cell Biol. 12: 3006–3014, 1992).
The possible functions for the novel carboxy-terminal domains were investigated further using two-hybrid analysis.

For TNF-α, the “cell rounding and death, gross morphology” value with MCF-7 cells (TNF-α alone, uninduced cells) was “low level of cell rounding and death”. The cell death in the series on MCF-7 cells (TNF-α together with HEF1 induction) was ~100%. Besides, the PARP cleavage result with MCF-7 cells (uninduced HEF1 cells and vector control MCF-7 cells, TNF-α) is given as “detected”.

In the case of z-DEVD-fmk, in the series with caspase 3, the “activity towards the caspase 3 substrate Ac-DEVD-pNA in HEF1 expressing cells” value is on record as “potently blocked”.

B1: HEF1 carboxy-terminal domain (other)
chain: IMKQNKMQLEHHQLSQFQLLEQEITKPVENDISKWKPSQSLPTTNSGVSAQDRQLLCFYYDQCETHFISLLNAIDALFSCVSSAQPPRIFVAHSKFVILSAHKLVFIGDTLTRQVTAQDIRNKVMNSSNQLCEQLKTIVMATKMAALHYPSTTALQEMVHQVTDLSRNAQLFKRSLLEMATF
notes: Tested as a two-hybrid fusion; also called C-terminal effector domain; HEF1-Cterm182
Turning to B1, in series [1], the binding result is listed as “binds”.

The values above are taken from patent publication US6653074B1, “Methods for identifying agents which affect cellular morphology, locomotion and death” (Fox Chase Cancer Center, priority 1995, dated 2003).
